Laboratory results taken from PMC8220418, “A fragment-based approach to assess the ligandability of ArgB, ArgC, ArgD and ArgF in the L-arginine biosynthetic pathway of Mycobacterium tuberculosis” (Computational and Structural Biotechnology Journal, 2021).
In brackets after ≈: the same amount, converted by molar mass.

How the values were obtained:
[1] = molecular target: T1, ArgF (Mycobacterium tuberculosis, UniProt P9WIT9); assay: biochemical; format: binding; details: fragments at 5 mM, 5 µM ArgF, 5% DMSO; read-out: DSF ΔTm
Protocol: Fragment screening was carried out in a 96-well PCR plate using a CFX Connect Real-time PCR Detection System (Bio-Rad) for DSF. […] For ArgF each 25 μL reaction mixture contained 5 µM ArgF, 25 mM Tris-HCl (pH 8.0), 150 mM NaCl, 5x SYPRO Orange dye, 5 mM fragments and 5% DMSO (v/v). […] The protocol implemented increased temperature by 0.5 °C after every 30 s, going from 25 °C to 95 °C and measuring SYPRO Orange fluorescence for each temperature cycle. The melt curve RFU (relative fluorescence units) and derivative -d(RFU)/dT values were analysed and plotted using a macros-enabled Excel Workbook: the minima of the melt curves were recorded as the melting temperature (Tm) of the enzymes in the presence of each fragment. The Tm of the reference control (protein in the presence of DMSO) was subtracted from all the readings to calculate ΔTm.

[2] = molecular target: T1, ArgF; assay: Isothermal titration calorimetry with ArgF; format: binding; details: 25 °C, single-site model; read-out: ITC Kd
Protocol: ArgF was dialysed in 50 mM HEPES pH 8.0, 200 mM NaCl before it was loaded into the calorimetry cell at concentrations of 75–100 μM with the addition of 1 mM DTT. Ligand solutions at concentrations of 1 mM were dissolved in the same buffer and typically injected between 0.5 μL and 2 μL at 150 s intervals with stirring at 750 rpm. Buffer-ligand titrations were carried out as reference runs and subtracted from the protein–ligand titration to remove the heat of dilution. Data were analysed by fitting a simple single-site model using Origin software (Microcal).

[3] = molecular target: T2, ArgB (Mycobacterium tuberculosis, UniProt P9WQ01); assay: ArgB enzymatic assay (ADP release coupled to NADH oxidation, pyruvate kinase/lactate dehydrogenase); format: biochemical; details: for IC50: 0.5 µM ArgB, 0.3 mM ATP, 1.25 mM NAG, 10% DMSO, read-out: IC50; for Nature of ArgB inhibition in enzymatic competition assays: 0.3 mM ATP or NAG, other substrate varied
Protocol: ArgB activity was assessed by a colorimetric assay that followed the release of ADP by measuring the oxidation of NADH at 340 nm, for 30 min, in the presence of pyruvate kinase and lactate dehydrogenase in a PHERAstar plate-reader (BMG-Labtech). […]. Inhibitors were also individually screened against the coupled enzymes to eliminate any compounds interfering with the other assay components. Competition assays were performed in the same conditions using 0.3 mM of ATP or NAG and varying the other substrate concentration.

[4] = system: M. tuberculosis ΔargB-c; assay: microbe, parasite or virus in culture; format: cell-based, Mycobacterium tuberculosis; details: for MIC: Mycobacterium tuberculosis
[5] = system: M. tuberculosis MDR strain V2475; assay: microbe, parasite or virus in culture; format: cell-based, Mycobacterium tuberculosis; details: for MIC: Mycobacterium tuberculosis
[6] = molecular target: T2, ArgB; assay: biochemical; format: binding; details: 25 °C, single-site model; read-out: ITC Kd
[7] = molecular target: T2, ArgB; assay: Differential scanning fluorimetry (DSF) fragment screening against ArgB; format: binding; details: fragments at 5 mM, 10 µM ArgB, 5% DMSO
Protocol: Fragment screening was carried out in a 96-well PCR plate using a CFX Connect Real-time PCR Detection System (Bio-Rad) for DSF. For ArgB, each 25 μL reaction mixture contained 10 µM ArgB, 100 mM HEPES (pH 7.5), 200 mM NaCl, 5x SYPRO Orange, 5% DMSO (v/v), and fragments at 5 mM. For ArgF each 25 μL reaction mixture contained 5 µM ArgF, 25 mM Tris-HCl (pH 8.0), 150 mM NaCl, 5x SYPRO Orange dye, 5 mM fragments and 5% DMSO (v/v). For ArgC and ArgD, the 25 μL reaction volume consisted of the following: 2.5 μM ArgC/5 μM ArgD, 100 mM sodium phosphate pH 7, 200 mM NaCl, 5x SYPRO Orange, and 5 mM fragments (960 fragment library). The protocol implemented increased temperature by 0.5 °C after every 30 s, going from 25 °C to 95 °C and measuring SYPRO Orange fluorescence for each temperature cycle. The melt curve RFU (relative fluorescence units) and derivative -d(RFU)/dT values were analysed and plotted using a macros-enabled Excel Workbook: the minima of the melt curves were recorded as the melting temperature (Tm) of the enzymes in the presence of each fragment. The Tm of the reference control (protein in the presence of DMSO) was subtracted from all the readings to calculate ΔTm.

[8] = system: M. tuberculosis H37Rv; assay: microbe, parasite or virus in culture; format: cell-based, Mycobacterium tuberculosis; details: for MIC: Mycobacterium tuberculosis, media without arginine; for Inhibitory activity on growth with arginine present: arginine (1 mM) in the media
[9] = molecular target: T2, ArgB; assay: Ligand-observed NMR (CPMG) with ArgB, incl. displacement experiments; format: binding; details: 2 mM fragment, 10 µM ArgB; for NMR competition with natural ligands (ATP, NAG, L-arginine): 1 mM each natural ligand
[10] = molecular target: T2, ArgB; assay: Ligand-observed NMR (STD) with ArgB; format: binding; details: 2 mM fragment, 10 µM ArgB
[11] = molecular target: T3, ArgD (Mycobacterium tuberculosis, UniProt P9WPZ7); assay: Differential scanning fluorimetry (DSF) against ArgD; format: binding; details: fragments at 5 mM, PLP-unsaturated ArgD
[12] = molecular target: T3, ArgD; assay: ArgD end point enzymatic assay (reverse reaction, 2-aminobenzaldehyde, 440 nm); format: biochemical
Protocol: To assess the activity of ArgD an end point assay that follows the reverse reaction of the enzyme was used in the presence and absence of fragments. Reactions (100 μL) were set up containing the following: 100 mM Tris-HCl pH 8, 3 mM N-acetylornithine (NAO), 3.4 mM α-KG, 20 μM PLP and 4 μM enzyme. Duplicate reaction mixtures were prepared for each time point and 8 time points (0, 5, 10, 15, 20, 30, 45, 60 min) were tested in total. Two controls were prepared: one with all reaction components except the enzyme, and the other with all reaction components except NAO (NAO was added after HCl treatment). The reactions tubes were allowed to equilibrate in a heating block set at 37 °C for two minutes, and the enzyme was added to initiate the reaction. After the stipulated incubation times, contents of the reaction tubes were quickly transferred to 1.5 ml microcentrifuge tubes containing 60 μL of 6 N HCl to stop the reactions. These tubes were then kept in a heating block set at 95 °C for 30 min, after which they were cooled to 25 °C in a water bath. 200 μL of 3.6 M sodium acetate was added to each tube (final concentration of 1.8 M), along with 40 μL of 30 mM 2-aminobenzaldehyde (final concentration of 3 mM in a total volume of 400 μL). A yellow colouration started developing as soon as the latter was added, the contents were vortexed and the tubes were incubated at 25 °C for 15 min. 200 μL of each reaction mixture was transferred into wells of a 96-well flat bottom UV transparent microplate, and absorbance at 440 nm was measured using the PHERAstar plate reader. All experiments were performed at least in triplicate in a PHERAstar plate-reader (BMG-Labtech) and the control without ArgD was used for blank subtraction. Data were analysed with GraphPad Prism (Graphpad Software). All reagents were obtained from Sigma-Aldrich.
Aminotransferases are often assayed for the reverse reactions they catalyse because in most cases substrates for the forward reaction are not commercially sold. […]

[13] = molecular target: T3, ArgD; assay: Surface plasmon resonance with immobilised ArgD; format: binding; details: fragments at 1 mM, adjusted for molecular weight
[14] = system: M. tuberculosis; set-up: method as in PMID 29483133; details: BALB/c mice, chemical inhibition of ArgJ; cited from earlier work

T3 sequence (P9WPZ7 whole entry, the tested form may be a part): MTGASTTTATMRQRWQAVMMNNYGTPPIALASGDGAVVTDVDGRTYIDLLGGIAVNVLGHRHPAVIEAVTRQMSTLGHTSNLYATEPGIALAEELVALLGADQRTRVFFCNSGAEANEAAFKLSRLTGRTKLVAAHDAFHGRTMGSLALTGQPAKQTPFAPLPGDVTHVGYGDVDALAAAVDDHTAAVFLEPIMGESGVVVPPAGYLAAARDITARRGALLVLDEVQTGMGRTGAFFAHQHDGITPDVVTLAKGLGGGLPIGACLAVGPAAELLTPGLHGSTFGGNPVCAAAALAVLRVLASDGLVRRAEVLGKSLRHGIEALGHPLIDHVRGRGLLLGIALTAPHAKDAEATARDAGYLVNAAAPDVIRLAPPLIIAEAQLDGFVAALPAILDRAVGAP
T1 sequence (P9WIT9 whole entry, the tested form may be a part): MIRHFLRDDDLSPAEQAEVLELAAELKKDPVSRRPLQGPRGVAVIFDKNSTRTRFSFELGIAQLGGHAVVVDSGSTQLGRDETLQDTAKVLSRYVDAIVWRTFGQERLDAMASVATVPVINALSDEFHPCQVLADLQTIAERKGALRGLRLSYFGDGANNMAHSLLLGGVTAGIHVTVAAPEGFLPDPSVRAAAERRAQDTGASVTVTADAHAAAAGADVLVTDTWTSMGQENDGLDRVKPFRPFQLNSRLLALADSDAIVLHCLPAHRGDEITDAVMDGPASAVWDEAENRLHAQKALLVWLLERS

Cc1sc(N)nc1-c1ccccc1 [NMR007]
ΔTm at 5000 µM [1]: 3 °C
Kd [2]: 161 ± 20 µM

O=c1cc[nH]c2c(C(F)(F)F)cccc12 [NMR446, 8-(trifluoromethyl)-1H-quinolin-4-one]
IC50 [3]: 707 ± 7 µM
Nature of ArgB inhibition in enzymatic competition assays [3]: non-competitive
Inhibitory activity on growth with arginine present [4]: no inhibitory activity
MIC [4]: > 200 µg/mL
MIC [5]: > 200 µg/mL
Kd [6]: 24 ± 1.5 µM
ΔTm at 5000 µM [7]: 8 °C
MIC [8]: > 200 µg/mL
Inhibitory activity on growth with arginine present [8]: no inhibitory activity
CPMG [9]: binds
NMR competition with natural ligands (ATP, NAG, L-arginine) [9]: not competitive
STD [10]: binds

O=C(O)c1cc2ccccc2cc1O [NMR608, 3-Hydroxy-2-naphthoic acid]
ΔTm at 5000 µM [11]: 2.4 °C
% inhibition at 2 mM ([12]; 2 mM fragment, 4 μM ArgD): 16.6%
inhibition at 2000 µM ([12]; 2 mM fragment, 4 μM ArgD): 16%
inhibition at 4000 µM ([12]; read-out: % inhibition at 4 mM, 4 mM fragment, 4 μM ArgD): 31%
SPR Binding Response with PLP injection [13]: 50.3 RU

OB(O)c1cc(Cl)cc(Cl)c1 [NMR812]
ΔTm at 5000 µM [1]: 3.6 °C
Kd [2]: 120 ± 30 µM

O=c1cc(C(F)(F)F)[nH]c2c(C(F)(F)F)cccc12 [NMR711, 2,8-bis(trifluoromethyl)-1H-quinolin-4-one]
IC50 [3]: 366 ± 4 µM
Nature of ArgB inhibition in enzymatic competition assays [3]: non-competitive
Inhibitory activity on growth with arginine present [4]: inhibitory
MIC [4]: 25 to 50 µg/mL (≈ 88.9 to 178 µM)
MIC [5]: 25 to 50 µg/mL (≈ 88.9 to 178 µM)
Inhibitory activity on growth with arginine present ([5]; V2475, arginine (1 mM) in the media): inhibitory
Kd [6]: 7.7 ± 0.8 µM
ΔTm at 5000 µM [7]: 7.9 °C
MIC [8]: 25 to 50 µg/mL (≈ 88.9 to 178 µM)
Inhibitory activity on growth with arginine present [8]: inhibitory
CPMG [9]: binds
NMR competition with natural ligands (ATP, NAG, L-arginine) [9]: not competitive
STD [10]: binds

O=C(Nc1cccc2c(=O)cc(-c3nnn[nH]3)oc12)c1ccc(OCCCCc2ccccc2)cc1 [Pranlukast]
Effect on chronic M. tuberculosis infection [14]: cleared a chronic M. tuberculosis infection
